According to paper PMC7665585, “Antidepressive effect of an inward rectifier K^+ channel blocker peptide, tertiapin-RQ” (PLoS ONE, 2020):
pIC50: −log10 of the molar value. Bridge positions count the residues as written; N and C are the ends. Peptide text beside a SMILES is read from it.

Key:
[1] = biological target: T1, mouse GIRK1/2 (Mus musculus, UniProt P48542+P63250); test: Whole-cell patch-clamp of GIRK1/2 in transfected 293T cells; assay type: cell-based
T1 construct: expressed in transfected cells; host or cells: 293T cells, transient calcium phosphate transfection, pCMV6 plasmid
T1 sequence (P63250 1-501): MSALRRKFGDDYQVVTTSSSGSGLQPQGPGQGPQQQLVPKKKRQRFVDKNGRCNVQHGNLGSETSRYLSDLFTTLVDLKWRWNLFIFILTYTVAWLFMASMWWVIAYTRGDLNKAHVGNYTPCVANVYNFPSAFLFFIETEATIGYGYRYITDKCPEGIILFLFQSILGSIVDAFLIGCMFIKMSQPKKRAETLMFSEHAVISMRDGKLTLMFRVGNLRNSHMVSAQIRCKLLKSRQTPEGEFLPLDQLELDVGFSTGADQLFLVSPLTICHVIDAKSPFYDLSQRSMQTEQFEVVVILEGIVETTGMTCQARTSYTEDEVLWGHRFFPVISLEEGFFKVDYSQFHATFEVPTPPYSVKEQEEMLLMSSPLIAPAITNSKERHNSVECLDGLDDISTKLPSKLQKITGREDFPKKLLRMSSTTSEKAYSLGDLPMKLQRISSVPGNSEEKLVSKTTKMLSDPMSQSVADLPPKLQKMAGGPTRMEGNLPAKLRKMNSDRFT
T1 sequence (P48542 1-425): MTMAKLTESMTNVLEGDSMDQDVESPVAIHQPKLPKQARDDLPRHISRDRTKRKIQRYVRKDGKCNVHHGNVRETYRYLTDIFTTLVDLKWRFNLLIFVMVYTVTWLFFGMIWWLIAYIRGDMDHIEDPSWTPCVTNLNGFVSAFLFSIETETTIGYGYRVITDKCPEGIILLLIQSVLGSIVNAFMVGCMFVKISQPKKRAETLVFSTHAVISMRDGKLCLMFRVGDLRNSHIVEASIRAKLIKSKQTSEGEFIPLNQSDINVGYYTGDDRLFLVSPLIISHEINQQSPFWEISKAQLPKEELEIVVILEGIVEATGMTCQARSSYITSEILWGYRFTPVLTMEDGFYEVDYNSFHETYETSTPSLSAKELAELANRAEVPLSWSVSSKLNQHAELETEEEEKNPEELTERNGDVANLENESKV
Source text: The cDNAs for rat ROMK and mouse GIRK1, 2, and 4 were generously donated by Drs Mikio Hayashi (Kansai Medical University) and David Weaver (Vanderbilt University). The ROMK channels were stably expressed by a cell line, 208–4, which was transduced with lentiviral vectors coexpressing the channel and green fluorescent protein (GFP) as described previously. The GIRK genes, cloned in a pCMV6 plasmid (Origene Technologies Inc, Rockville, MD), were transiently expressed in 293T cells with calcium phosphate transfection. GIRK channel currents were recorded 24 h after transfection.
Cells grown on small cover glasses (3 × 18 mm) were placed in a recording chamber. Whole-cell currents were recorded in Tyrode solution using an Axopatch 200B amplifier (Axon Instruments, Foster City, CA) at 25°C. Tyrode solution contained (in mM): NaCl 140, KCl 5.4, NaH2PO4 0.33, CaCl2 2, MgCl2 1, HEPES 5, and glucose 5.5 (pH 7.4 adjusted with NaOH). […] Whole-cell currents were recorded 60 sec after the peptide application and those from 100 to 300 msec of the step pulses were averaged. […] Whole-cell conductance was calculated as the slope of the current-voltage (I-V) relationship from -140 mV to -100 mV and normalized to the initial value (0 μM TPN), in which BaCl2-resistant current was subtracted and indicted as a percentage.

[2] = tested on: Male ICR mice; test: Forced swim test (FST); assay type: in vivo, mouse; conditions: i.c.v., 30 min before test, last 4 min of 6 min
Protocol: We performed mouse behavioral experiments in accordance with our previous study. Male ICR mice (n = 199 in total) aged 5 weeks old were purchased from Shimizu Laboratory Supplies (Kyoto, Japan) and maintained in an animal facility for 7–12 days. They had free access to food and water and were kept in a 12-h light/dark cycle (08:00–20:00). Experiments were carried out between 11:00 and 17:00 in a quiet and air-conditioned experimental room, to which mice were habituated for 30–60 min before each experiment. Animal experiments were performed in accordance with the guidelines of the Physiological Society of Japan and were approved by the Committee for Animal Experiments of Kurashiki University of Science and the Arts. Peptides were dissolved in phosphate-buffered saline (PBS). Peptides were injected intracerebroventricularly (i.c.v.) 30 min before behavioral tests (typically 5 μL/mouse), according to a previous study. The mouse was placed into an anesthetizing jar, to which isoflurane (0.2 mL) was added immediately before. […]
The forced swim test (FST) was performed in accordance with the method reported previously. […] The mouse was allowed to swim for 6 min and its activity was measured. […]

Row | SMILES | pIC50 ([1]; 293T cells transiently expressing mouse GIRK1/2, high K+ Tyrode solution (Fig 7), read-out: IC50, GIRK1/2 conductance) | difference in IC50, GIRK1/2 over ROMK ([1]; ratio of IC50 GIRK1/2 to IC50 ROMK) [fold] | immobile time in FST [2]
1 | CC[C@H](C)[C@@H]1NC(=O)[C@H](CCCNC(=N)N)NC(=O)[C@H](CCCNC(=N)N)NC(=O)[C@H](CC(N)=O)NC(=O)[C@@H]2CSSC[C@@H](C(=O)NCC(=O)N[C@@H](CCCCN)C(=O)N[C@@H](CCCCN)C(N)=O)NC(=O)[C@H](CCCCN)NC(=O)[C@H](CCCCN)NC(=O)[C@H](Cc3c[nH]c4ccccc34)NC(=O)[C@H](CSSC[C@H](NC(=O)[C@H](CC(C)C)NC(=O)[C@H](C)N)C(=O)N[C@@H](CC(N)=O)C(=O)N2)NC(=O)[C@H](CCC(N)=O)NC(=O)[C@H](Cc2c[nH]cn2)NC(=O)[C@@H]2CCCN2C(=O)[C@H]([C@@H](C)CC)NC1=O [Peptide 2, TPN-RQ] (H-ALCNCNRRIIPHQCWKKCGKK-NH2; disulfide 3-14, 5-18) | 6.21 | – | –
2 | CC[C@H](C)[C@@H]1NC(=O)[C@H](CCCNC(=N)N)NC(=O)[C@H](CC(N)=O)NC(=O)[C@@H]2CSSC[C@@H](C(=O)NCC(=O)N[C@@H](CCCCN)C(=O)N[C@@H](CCCCN)C(N)=O)NC(=O)[C@H](CCCCN)NC(=O)[C@H](CCCCN)NC(=O)[C@H](Cc3c[nH]c4ccccc34)NC(=O)[C@H](CSSC[C@H](NC(=O)[C@H](CC(C)C)NC(=O)[C@H](C)N)C(=O)N[C@@H](CC(N)=O)C(=O)N2)NC(=O)[C@H](CCC(N)=O)NC(=O)[C@H](CC(C)C)NC(=O)[C@@H]2CCCN2C(=O)[C@H]([C@@H](C)CC)NC(=O)[C@H]([C@@H](C)CC)NC1=O [Peptide 3, TPN-LQ] (H-ALCNCNRIIIPLQCWKKCGKK-NH2; disulfide 3-14, 5-18; N-terminus and C-terminus assumed) | – | 20.9 | decreased the immobile time
